According to ChEMBL document CHEMBL4387733, “Design, synthesis and biological evaluation of indane derived GPR40 agoPAMs” (Bioorg Med Chem Lett, 2019):
Values after ≈ are worked out from the molar mass of the structure shown. Active and inactive are the calls of the source. The rule behind the calls is not given here.

Key:
[1] = target: Sodium-dependent dopamine transporter (Homo sapiens) (UniProt Q01959); assay: Inhibition of human sodium dependent dopamine transporter at 10 uM relative to control
[2] = target: D(1A) dopamine receptor (Homo sapiens) (UniProt P21728); assay: Inhibition of human dopamine D1 receptor at 10 uM relative to control
[3] = target: Alpha-2C adrenergic receptor (Homo sapiens) (UniProt P18825); assay: Inhibition of human adrenergic alpha2C receptor at 10 uM relative to control
[4] = target: Alpha-2A adrenergic receptor (Homo sapiens) (UniProt P08913); assay: Inhibition of human adrenergic alpha2A receptor at 10 uM relative to control
[5] = target: Muscarinic acetylcholine receptor M3 (Homo sapiens) (UniProt P20309); assay: Inhibition of human muscarinic M3 receptor at 10 uM relative to control
[6] = target: Acetylcholinesterase (Homo sapiens) (UniProt P22303); assay: Inhibition of human recombinant full length acetylcholine esterase expressed in HEK293 cells at 10 uM using acetylcholine as substrate preincubated for 15 mins followed by substrate addition measured after 20 mins by spectrophotometric analysis
[7] = target: D(2) dopamine receptor (Homo sapiens) (UniProt P14416); assay: Inhibition of human dopamine D2s receptor at 10 uM relative to control
[8] = target: Kappa-type opioid receptor (Homo sapiens) (UniProt P41145); assay: Inhibition of human kappa type opioid receptor at 10 uM relative to control
[9] = target: MAP/microtubule affinity-regulating kinase 3 (Homo sapiens) (UniProt P27448); assay: Inhibition of human full-length recombinant MARK3 expressed in insect cells at 10 uM using CHKtide as substrate preincubated for 15 mins followed by substrate addition and measured after 30 mins in presence of [gamma32P]ATP by scintillation counting analysis relative to control
[10] = target: Free fatty acid receptor 1 (Homo sapiens, UniProt O14842); assay: Positive allosteric modulation of recombinant human GPR40 expressed in HEK293 cells assessed as increase in [3H]-myo-inositol phosphate accumulation measured after 60 mins in presence of 100% human serum by microbeta counting method; assay type: functional, cell-based
[11] = target: Mitogen-activated protein kinase 3 (Homo sapiens) (UniProt P27361); assay: Inhibition of human recombinant full-length ERK1 expressed in Escherichia coli at 10 uM using myelin basic protein as substrate preincubated for 30 mins followed by substrate addition and measured after 30 mins in the presence of [gamma32P]ATP by scintillation counting method relative to control
Caspase-8 (Homo sapiens) = Caspase-8 (Homo sapiens) (UniProt Q14790); assay: Inhibition of human full-length recombinant caspase 8 expressed in Escherichia coli at 10 uM using Ac-IETD-AMC as substrate preincubated for 15 mins followed by substrate addition and measured after 60 mins by spectrofluorimetric analysis relative to control
[12] = target: Cathepsin G (Homo sapiens) (UniProt P08311); assay: Inhibition of human neutrophil cathepsin G at 10 uM using Suc-Ala-Ala-Pro-Phe-AMC as substrate preincubated for 15 mins followed by substrate addition and measured after 30 mins by spectrofluorimetric analysis relative to control
[13] = Solubility of the compound in FASSIF; assay type: physicochemical
Caspase-9 (Homo sapiens) = Caspase-9 (Homo sapiens) (UniProt P55211); assay: Inhibition of human full-length recombinant caspase 9 expressed in Escherichia coli at 10 uM using Ac-LEHD-AFC as substrate preincubated for 15 mins followed by substrate addition and measured after 60 mins by spectrofluorimetric analysis relative to control
[14] = target: Prostaglandin E2 receptor EP1 subtype (Homo sapiens) (UniProt P34995); assay: Inhibition of human prostanoid EP1 receptor at 10 uM relative to control
[15] = target: Prostaglandin G/H synthase 2 (Homo sapiens) (UniProt P35354); assay: Inhibition of human recombinant cyclooxygenase COX2 expressed in baculovirus infected Sf9 cells at 10 uM using arachidonic acid as substrate preincubated for 15 mins followed by substrate addition and measured after 3 mins by ampliflu red reagent-based spectrofluorimetric method relative to control
[16] = target: Sodium-dependent noradrenaline transporter (Homo sapiens) (UniProt P23975); assay: Inhibition of human sodium dependent noradrenaline transporter at 10 uM relative to control
Rattus norvegicus [17] = assay: Hypoglycemic activity in Sprague-Dawley rat assessed as reduction in blood glucose AUC at 0.3 mg/kg, po pretreated for 1 hr followed by glucose challenge by OGTT relative to control; assay type: functional
[18] = target: 5-hydroxytryptamine receptor 1A (Homo sapiens) (UniProt P08908); assay: Inhibition of human 5HT1A receptor at 10 uM relative to control
[19] = target: Cysteinyl leukotriene receptor 2 (Homo sapiens) (UniProt Q9NS75); assay: Displacement of [3H]LTD4 from human full-length recombinant cysteinyl leukotriene type-2 receptor expressed in HEK293 cells at 10 uM measured after 60 mins by scintillation counting method relative to control; assay type: cell-based
Mus musculus = organism: Mus musculus; assay: Glucose lowering effect in GPR40 knockout mouse assessed as increase in GLP-1 level; assay type: functional, organism-based
[20] = target: Histamine H1 receptor (Homo sapiens) (UniProt P35367); assay: Inhibition of human histamine H1 receptor at 10 uM relative to control
[21] = target: Mu-type opioid receptor (Homo sapiens) (UniProt P35372); assay: Inhibition of human mu type opioid receptor at 10 uM relative to control
[22] = target: B1 bradykinin receptor (Homo sapiens) (UniProt P46663); assay: Displacement of [3H]Kallidin(des-Arg10,Leu9) from human recombinant bradykinin B1 receptor expressed in CHOK1 cells at 10 uM after 60 mins by scintillation counting assay relative to control; assay type: cell-based
[23] = target: GABA-A receptor; anion channel (Rattus norvegicus) (UniProt O09028+P15431+P18506+P18508+P19969+P20236+P23574+P23576+P28471+P28473+P30191+P62813+P63079+P63138+Q91ZM7+Q9ES14); assay: Inhibition of rat GABAA receptor at 10 uM relative to control; assay type: protein-complex assay
Rattus norvegicus [24] = organism: Rattus norvegicus; assay: Inhibition of rat P2Y receptor at 10 uM relative to control
[25] = target: 5-hydroxytryptamine receptor 2A (Homo sapiens) (UniProt P28223); assay: Inhibition of human 5-HT2A receptor at 10 uM relative to control
[26] = target: Sodium-dependent serotonin transporter (Homo sapiens) (UniProt P31645); assay: Inhibition of human SERT at 10 uM relative to control
[27] = target: Prostaglandin G/H synthase 1 (Homo sapiens) (UniProt P23219); assay: Inhibition of human recombinant cyclooxygenase COX1 expressed in baculovirus infected Sf9 cells at 10 uM using arachidonic acid as substrate preincubated for 15 mins followed by substrate addition and measured after 3 mins by ampliflu red reagent-based spectrofluorimetric method relative to control
[28] = target: Histamine H2 receptor (Homo sapiens) (UniProt P25021); assay: Inhibition of human histamine H2 receptor at 10 uM relative to control
[29] = target: 5-hydroxytryptamine receptor 2C (Homo sapiens) (UniProt P28335); assay: Inhibition of human 5-HT2C receptor at 10 uM relative to control
[30] = target: Histamine H4 receptor (Homo sapiens) (UniProt Q9H3N8); assay: Inhibition of human histamine H4 receptor at 10 uM relative to control
[31] = target: 5-hydroxytryptamine receptor 2B (Homo sapiens) (UniProt P41595); assay: Inhibition of human 5-HT2B receptor at 10 uM relative to control
[32] = target: Prostaglandin E2 receptor EP3 subtype (Homo sapiens) (UniProt P43115); assay: Inhibition of human prostanoid EP3 receptor at 10 uM relative to control

Sodium-dependent dopamine transporter (Homo sapiens), sequence (Q01959 whole entry): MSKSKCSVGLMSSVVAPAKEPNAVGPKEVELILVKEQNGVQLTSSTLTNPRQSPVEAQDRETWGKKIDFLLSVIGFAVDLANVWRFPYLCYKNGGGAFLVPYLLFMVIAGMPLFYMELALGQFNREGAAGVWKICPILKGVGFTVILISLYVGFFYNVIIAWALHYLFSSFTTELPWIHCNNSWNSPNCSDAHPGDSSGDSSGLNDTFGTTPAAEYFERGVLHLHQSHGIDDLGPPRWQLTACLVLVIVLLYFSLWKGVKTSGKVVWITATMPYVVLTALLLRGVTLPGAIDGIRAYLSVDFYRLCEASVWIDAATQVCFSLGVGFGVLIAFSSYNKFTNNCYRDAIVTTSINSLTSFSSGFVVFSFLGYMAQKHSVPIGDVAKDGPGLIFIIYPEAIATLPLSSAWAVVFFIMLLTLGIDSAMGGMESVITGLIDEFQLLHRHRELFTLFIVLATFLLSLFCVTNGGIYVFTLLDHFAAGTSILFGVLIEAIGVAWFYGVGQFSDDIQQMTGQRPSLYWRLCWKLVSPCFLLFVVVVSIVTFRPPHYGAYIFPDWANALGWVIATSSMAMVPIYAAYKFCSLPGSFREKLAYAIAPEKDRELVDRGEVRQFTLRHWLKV
5-hydroxytryptamine receptor 2B (Homo sapiens), sequence (P41595 whole entry): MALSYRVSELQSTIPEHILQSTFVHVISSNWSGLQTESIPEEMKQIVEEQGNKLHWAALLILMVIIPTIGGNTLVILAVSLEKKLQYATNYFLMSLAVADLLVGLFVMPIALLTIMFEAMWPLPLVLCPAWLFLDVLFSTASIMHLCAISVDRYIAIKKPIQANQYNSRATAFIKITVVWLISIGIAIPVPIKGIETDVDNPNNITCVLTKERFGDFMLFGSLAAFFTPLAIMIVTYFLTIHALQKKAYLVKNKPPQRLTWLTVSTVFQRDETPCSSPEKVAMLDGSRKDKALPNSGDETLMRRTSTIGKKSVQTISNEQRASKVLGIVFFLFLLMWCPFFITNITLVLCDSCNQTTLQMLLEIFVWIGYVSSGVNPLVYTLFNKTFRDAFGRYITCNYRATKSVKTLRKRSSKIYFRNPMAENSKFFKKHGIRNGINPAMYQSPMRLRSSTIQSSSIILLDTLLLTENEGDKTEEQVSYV
Prostaglandin G/H synthase 2 (Homo sapiens), sequence (P35354 whole entry): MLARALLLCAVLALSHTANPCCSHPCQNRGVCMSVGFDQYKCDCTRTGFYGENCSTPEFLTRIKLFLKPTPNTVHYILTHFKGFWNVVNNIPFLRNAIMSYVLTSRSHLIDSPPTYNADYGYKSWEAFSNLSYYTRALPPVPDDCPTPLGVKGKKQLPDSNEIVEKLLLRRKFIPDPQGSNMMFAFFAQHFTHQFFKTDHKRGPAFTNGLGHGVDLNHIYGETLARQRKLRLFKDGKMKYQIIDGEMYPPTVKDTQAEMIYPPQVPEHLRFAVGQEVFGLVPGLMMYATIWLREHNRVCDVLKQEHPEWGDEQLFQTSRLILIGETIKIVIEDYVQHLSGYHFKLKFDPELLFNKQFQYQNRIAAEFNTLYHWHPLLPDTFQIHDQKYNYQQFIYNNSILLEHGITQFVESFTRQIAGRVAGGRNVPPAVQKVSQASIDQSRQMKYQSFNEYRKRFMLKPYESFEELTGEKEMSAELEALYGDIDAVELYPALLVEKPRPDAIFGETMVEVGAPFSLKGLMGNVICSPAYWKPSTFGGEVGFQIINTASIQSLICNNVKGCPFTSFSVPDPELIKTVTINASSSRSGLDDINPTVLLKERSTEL
Alpha-2A adrenergic receptor (Homo sapiens), sequence (P08913 whole entry): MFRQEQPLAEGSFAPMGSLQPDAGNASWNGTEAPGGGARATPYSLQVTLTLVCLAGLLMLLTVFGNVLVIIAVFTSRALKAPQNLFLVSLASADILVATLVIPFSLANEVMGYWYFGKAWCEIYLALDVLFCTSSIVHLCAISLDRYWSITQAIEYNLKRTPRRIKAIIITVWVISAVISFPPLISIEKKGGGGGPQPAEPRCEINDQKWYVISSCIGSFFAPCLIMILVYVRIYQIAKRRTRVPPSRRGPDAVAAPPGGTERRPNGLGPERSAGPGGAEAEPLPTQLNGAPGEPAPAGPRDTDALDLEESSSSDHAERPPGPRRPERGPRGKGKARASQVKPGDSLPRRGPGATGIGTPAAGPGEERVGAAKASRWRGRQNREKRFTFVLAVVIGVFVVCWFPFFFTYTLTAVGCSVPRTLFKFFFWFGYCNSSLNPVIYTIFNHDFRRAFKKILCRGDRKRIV
Free fatty acid receptor 1, sequence (O14842 whole entry): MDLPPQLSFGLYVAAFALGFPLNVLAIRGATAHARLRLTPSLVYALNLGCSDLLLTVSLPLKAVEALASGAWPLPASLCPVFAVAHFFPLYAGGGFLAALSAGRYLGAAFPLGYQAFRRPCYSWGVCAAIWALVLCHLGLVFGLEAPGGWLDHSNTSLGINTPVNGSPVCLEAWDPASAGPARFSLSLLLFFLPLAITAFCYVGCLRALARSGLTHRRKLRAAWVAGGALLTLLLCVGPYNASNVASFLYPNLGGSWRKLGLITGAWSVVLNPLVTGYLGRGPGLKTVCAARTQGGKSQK
Sodium-dependent serotonin transporter (Homo sapiens), sequence (P31645 whole entry, looked up): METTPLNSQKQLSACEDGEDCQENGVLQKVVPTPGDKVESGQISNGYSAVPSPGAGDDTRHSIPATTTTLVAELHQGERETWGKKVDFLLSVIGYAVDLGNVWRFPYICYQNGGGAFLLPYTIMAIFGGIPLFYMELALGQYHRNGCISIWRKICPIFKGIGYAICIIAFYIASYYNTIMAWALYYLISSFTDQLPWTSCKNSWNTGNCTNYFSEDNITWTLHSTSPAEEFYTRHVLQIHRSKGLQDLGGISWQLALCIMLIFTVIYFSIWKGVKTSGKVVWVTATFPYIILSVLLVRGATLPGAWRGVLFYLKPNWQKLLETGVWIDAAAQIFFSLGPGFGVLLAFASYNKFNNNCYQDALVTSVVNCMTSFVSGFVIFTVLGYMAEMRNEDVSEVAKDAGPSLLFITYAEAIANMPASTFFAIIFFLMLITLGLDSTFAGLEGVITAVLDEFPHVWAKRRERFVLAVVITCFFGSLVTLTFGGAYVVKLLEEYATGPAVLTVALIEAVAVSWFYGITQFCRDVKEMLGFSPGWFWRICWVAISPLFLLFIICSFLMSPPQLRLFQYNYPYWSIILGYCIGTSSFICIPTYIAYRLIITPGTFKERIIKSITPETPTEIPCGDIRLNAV
5-hydroxytryptamine receptor 1A (Homo sapiens), sequence (P08908 whole entry): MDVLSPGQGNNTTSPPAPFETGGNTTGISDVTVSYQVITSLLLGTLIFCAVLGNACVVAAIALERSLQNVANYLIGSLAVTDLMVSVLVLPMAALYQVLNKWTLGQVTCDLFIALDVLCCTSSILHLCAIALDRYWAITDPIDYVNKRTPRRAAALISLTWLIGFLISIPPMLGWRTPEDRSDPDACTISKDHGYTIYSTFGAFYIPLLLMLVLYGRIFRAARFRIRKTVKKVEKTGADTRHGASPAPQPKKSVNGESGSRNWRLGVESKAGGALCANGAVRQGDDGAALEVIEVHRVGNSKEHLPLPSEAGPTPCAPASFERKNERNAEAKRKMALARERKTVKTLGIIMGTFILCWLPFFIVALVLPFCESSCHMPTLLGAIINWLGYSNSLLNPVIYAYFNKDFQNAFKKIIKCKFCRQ
Sodium-dependent noradrenaline transporter (Homo sapiens), sequence (P23975 whole entry): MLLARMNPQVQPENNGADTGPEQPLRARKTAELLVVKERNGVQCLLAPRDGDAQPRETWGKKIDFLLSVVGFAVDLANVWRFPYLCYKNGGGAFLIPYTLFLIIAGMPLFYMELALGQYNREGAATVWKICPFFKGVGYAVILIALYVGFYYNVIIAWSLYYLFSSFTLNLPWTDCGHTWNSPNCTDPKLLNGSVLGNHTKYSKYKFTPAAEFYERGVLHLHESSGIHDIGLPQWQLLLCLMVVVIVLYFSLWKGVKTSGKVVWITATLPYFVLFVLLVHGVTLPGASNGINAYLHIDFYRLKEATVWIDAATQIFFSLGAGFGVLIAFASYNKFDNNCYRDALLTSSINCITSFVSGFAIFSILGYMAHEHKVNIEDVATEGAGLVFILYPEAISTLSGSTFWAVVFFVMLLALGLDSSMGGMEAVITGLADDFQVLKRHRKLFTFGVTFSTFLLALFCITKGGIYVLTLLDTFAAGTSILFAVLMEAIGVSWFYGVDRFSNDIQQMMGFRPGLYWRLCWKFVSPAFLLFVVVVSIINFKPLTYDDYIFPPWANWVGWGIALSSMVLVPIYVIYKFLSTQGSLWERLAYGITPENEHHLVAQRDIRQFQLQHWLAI
Kappa-type opioid receptor (Homo sapiens), sequence (P41145 whole entry): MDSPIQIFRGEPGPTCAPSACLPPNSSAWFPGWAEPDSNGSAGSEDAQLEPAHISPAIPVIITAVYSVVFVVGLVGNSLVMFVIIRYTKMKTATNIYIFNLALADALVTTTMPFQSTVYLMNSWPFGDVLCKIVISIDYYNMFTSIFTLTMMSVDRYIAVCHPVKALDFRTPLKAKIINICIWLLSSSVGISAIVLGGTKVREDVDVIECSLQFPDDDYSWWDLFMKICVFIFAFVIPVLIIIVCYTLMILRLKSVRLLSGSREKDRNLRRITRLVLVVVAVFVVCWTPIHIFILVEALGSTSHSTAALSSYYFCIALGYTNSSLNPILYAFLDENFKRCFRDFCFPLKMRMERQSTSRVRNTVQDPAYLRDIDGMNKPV
D(2) dopamine receptor (Homo sapiens), sequence (P14416 whole entry): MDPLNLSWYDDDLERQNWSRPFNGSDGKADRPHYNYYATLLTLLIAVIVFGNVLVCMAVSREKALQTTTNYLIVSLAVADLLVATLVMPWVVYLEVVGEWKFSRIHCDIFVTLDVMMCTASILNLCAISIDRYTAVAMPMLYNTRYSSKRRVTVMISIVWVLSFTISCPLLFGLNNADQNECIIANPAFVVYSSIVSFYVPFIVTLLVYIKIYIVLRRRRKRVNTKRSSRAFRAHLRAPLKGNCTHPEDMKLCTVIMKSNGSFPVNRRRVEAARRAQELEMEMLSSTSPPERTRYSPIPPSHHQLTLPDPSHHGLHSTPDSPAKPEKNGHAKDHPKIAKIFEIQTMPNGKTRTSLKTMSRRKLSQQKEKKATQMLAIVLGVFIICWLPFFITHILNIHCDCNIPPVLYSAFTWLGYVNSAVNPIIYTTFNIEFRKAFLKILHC

Structure (SMILES): COc1ccc(F)c(-c2ccc(COc3cccc([C@@H](CC(=O)O)C4CC4)c3)cc2C2=CCCC2(C)C)c1
- inhibition [1]: 97%
- inhibition [2]: 78%
- inhibition [3]: 99%
- inhibition [4]: 99%
- inhibition [5]: 60%
- inhibition [6]: 52%
- inhibition [7]: 66%
- inhibition [8]: 97%
- inhibition [9]: 81%
- fEC50 [10]: 0.06 nM
- inhibition [11]: 96%
- inhibition (Caspase-8 (Homo sapiens)): 65%
- inhibition [12]: 53%
- solubility [13]: 166 µM (≈ 85.4 µg/mL)
- inhibition (Caspase-9 (Homo sapiens)): 89%
- inhibition [14]: 95%
- inhibition [15]: 77%
- inhibition [16]: 95%
- Activity (Rattus norvegicus [17]): Active
- inhibition [18]: 91%
- inhibition [19]: 61%
- Activity (Mus musculus): Active
- inhibition [20]: 97%
- inhibition [21]: 99%
- inhibition [22]: 63%
- inhibition [23]: 60%
- inhibition (Rattus norvegicus [24]): 80%
- inhibition [25]: 89%
- inhibition [26]: 70%
- inhibition [27]: 67%
- inhibition [28]: 66%
- inhibition [29]: 94%
- inhibition [30]: 82%
- inhibition [31]: 88%
- inhibition [32]: 77%
